Earlier results as cited in PMC11584006, “Structural characterization and AlphaFold modeling of human T cell receptor recognition of NRAS cancer neoantigens” (Science Advances, 2024).

Tested on: T cells transduced with these TCRs
Details: for peptide concentration at which TCR-transduced T cells can be activated: APCs pulsed with peptide, wild-type tested at >1000-fold higher concentrations
Source text: KRAS is the most highly mutated RAS isoform across cancers, accounting for ~85% of all RAS mutations with especially high frequencies in pancreatic and colorectal cancers ([12], [13]). However, NRAS mutations dominate in melanomas, with mutations at position 61 appearing in ~20% of patients ([14]). The two most frequent mutations are Q61K and Q61R ([15]). Mutant NRAS melanomas have more aggressive clinical features and poorer outcomes compared to nonmutant NRAS melanomas ([16]–[18]). […] This HLA-A*01:01–restricted TCR recognizes the NRAS^Q61K and NRAS^Q61R neoepitopes using gene segments TRDV1 and TRAJ27-1 for the α chain and TRBV27 and TRBJ2-5 for the β chain. […] Recombinant TCR and pMHC proteins were expressed by in vitro folding from bacterial inclusion bodies. Biotinylated wild-type NRAS–HLA-A1, NRAS ...

| Sequence | peptide concentration at which TCR-transduced T cells can be activated | concentration of peptide required for recognition (peptide titrations), relative to NRAS^Q61K (peptide titrations, HLA-A*01:01) |
| --- | --- | --- |
| ILDTAGREEY [NRAS^Q61R, NRAS^Q61R peptide ([…])] | subnanomolar | a higher concentration |
| ILDTAGQEEY [wild-type NRAS peptide, reference compound] | do not respond | – |
| ILDTAGKEEY [NRAS^Q61K, NRAS^Q61K peptide ([…]), residues 55 to 64] | subnanomolar | – |
